From patent US8999891B2, “Method for controlling weeds in turf” (Dow AgroSciences LLC, priority 2013, dated 2015)

Key:
White Clover (TRFRE) = test: Greenhouse post-emergence weed control, visual percent control; assay type: in vivo, Trifolium repens; settings: 1 week after treatment, florasulam 0.001 g ai/ha, fluroxypyr 0.01 g ae/ha, 2,4-D 0.11 g ae/ha, alone or in the mixture, 0 = no control, 100 = complete kill
Source text: Studies were applied post-emergence to broadleaf weeds reared from seed in 5″ square pots in 80% mineral/20% grit field soil. Stage of growth of species at application: EPHSU in the 3 to 5 leaf stage and TRFRE in the 3rd tri-foliate stage. Post-emergence trial design was a replicated block, one species per pot, 4 replicate pots per treatment. Post-emergence applications were made to the pot with a tracksprayer calibrated to 187 liters per hectare (L/ha), 40 pounds per square inch (PSI) at 1.9 miles per hour (mph) using an 8003E Teejet nozzle covering both soil and foliage. Trial was sub-irrigated daily. Active weed growth was maintained throughout the study period. Weed control of each species in the post-emergence study was assessed at 1, 2 and 3 weeks after treatment. Control was determined visually by comparing treated and untreated pots and scored on a 0 to 100 percent scale where 0 corresponds to no control and 100 corresponds to complete kill.
In the foregoing examples, the following equation was used to calculate the expected activity of mixtures containing three herbicidal active ingredients:
(§1) [formula] A=observed efficacy of a first active ingredient at the same concentration as used in the mixture. B=observed efficacy of a second active ingredient B at the same concentration as used in the mixture. C=observed efficacy of a third active ingredient C at the same concentration as used in the mixture. The following abbreviations are used in the tables: g ai/ha=grams active ingredient per hectare g ae/ha=grams acid equivalent per hectare DAA=days after application.

Ground Ivy (GLEHE) = test: Field study in turf, average % weed control; assay type: in vivo, Glechoma hederacea
Source text: (§2) Replicated applications were made to small plots (i.e. 5′×5′, 3′×10′) using a CO2 backpack sprayer. Florasulam SC (EF-1343), fluoroxypyr (Starane® Ultra) and 2,4-D (DMA® 4) are produced by Dow AgroSciences LLC, Indianapolis, Ind. Applications at each site were made at typical postemergent herbicide timing for that particular study location. Applications were generally timed for peak dandelion bloom in the northern cool-season turf market and throughout the year in the warm-season turf market where winter and summer annual and perennial weeds are targeted. Weed control evaluations were made as percent weed cover per plot and converted to percent control based on weed levels in the untreated control. Evaluations were made at various timing after application for eight to ten weeks.
as §1

Dandelion (TAROF) = test: Field study in turf, average % weed control; assay type: in vivo, Taraxacum officinale; settings: 55 DAA, florasulam 5.2 g ai/ha, fluroxypyr 52.9 g ae/ha, 2,4-D 520 g ae/ha, alone or in the mixture
Source text: as §2, §1

White Cover (TRFRE) = test: Field study in turf, average % weed control; assay type: in vivo, Trifolium repens; settings: 62 DAA, florasulam 5.2 g ai/ha, fluroxypyr 52.9 g ae/ha, 2,4-D 520 g ae/ha, alone or in the mixture
Source text: as §2, §1

[1] = 28 DAA, florasulam 2.3 g ai/ha, fluroxypyr 26.5 g ae/ha, 2,4-D 260.6 g ae/ha alone (260.0 in the mixture)
[2] = 56 DAA, florasulam 5.2 g ai/ha, fluroxypyr 52.9 g ae/ha, 2,4-D 520 g ae/ha, alone or in the mixture

| SMILES | Observed percent control (White Clover (TRFRE)) [%] | Observed Average % Weed Control (Ground Ivy (GLEHE); [1]) [%] | Observed Average % Weed Control (Ground Ivy (GLEHE); [2]) [%] | Observed Average % Weed Control (Dandelion (TAROF)) [%] | Observed Average % Weed Control (White Cover (TRFRE)) [%] |
| --- | --- | --- | --- | --- | --- |
| O=C(O)COc1ccc(Cl)cc1Cl [2,4-D, (2,4-dichlorophenoxy)acetic acid] | 1.7 | 41.0 | 41.7 | 45.6 | 20.0 |
| COc1ncc(F)c2nc(S(=O)(=O)Nc3c(F)cccc3F)nn12 [Florasulam, 2′,6′,8-trifluoro-5-methoxy[1,2,4]triazolo[1,5-c]pyrimidine-2-sulfonanilide] | 10.3 | 0.0 | 0.0 | 25.0 | 23.8 |
| Nc1c(Cl)c(F)nc(OCC(=O)O)c1Cl [Fluroxypyr, [(4-amino-3,5-dichloro-6-fluoro-2-pyridinyl)oxy]acetic acid] | 35 | 0.0 | 0.0 | 14.3 | 31.3 |
